Source: patent US11964990B2, “1,3,4,7-tetrahydro-2H-pyrrolo[3′,2′:5,6]pyrido[2,3-b][1,4]oxazepine bcl-2 inhibitors” (AbbVie Inc., priority 2022, dated 2024)

Legend:
RS4;11 cells = test: Cell viability assay (CellTiter-Glo) in RS4;11 cell line; assay type: cell-based; settings: 24 hours, 10% Human Serum, 50% decrease in cell viability
Description: (§1) The acute lymphoblastic leukemia (ALL) human cell line RS4;11 (ATCC, Manassas VA) was used as the primary human cell line to assess the cellular activity of compound of the present Examples in vitro and their efficacy in vivo. BH3 profiling, a mitochondrial assay that classifies blocks in the intrinsic apoptotic pathway, has shown that RS4;11 cells were highly dependent on Bcl-2 protein for survival and were sensitive to a Bcl-2 inhibitor (Blood. 2008; 111(4):2300-2309). […] The acute lymphoblastic leukemia cell line Molt-4, which is derived from immature T-lymphoid cells (T-ALL), was used as a counter screen assay.
(§2) Frozen RS4;11 or Molt-4 cells (ATCC, Manassas, VA, USA) were thawed overnight in RPMI 1640 media (Thermo Fisher Scientific, Waltham, MA, USA) supplemented with 1% penicillin/streptomycin (Thermo Fisher Scientific, Waltham, MA, USA), and 10% Human Serum (Sigma, St. Louis, MO, USA). 3000 Cells (0.1×10^6/mL) were seeded in each well of 384-well plate and were treated for 24 hours in a humidified chamber with 5% CO2. Cell viability was determined by CellTiter-Glo as described by the manufacturer's instructions (Promega Corporation, Madison, WI, USA). Responses were determined as a percentage of the control treated cells and the effective concentration (EC50) to induce a 50% decrease in cell viability were determined from sigmoidal dose-response curves using Dotmatics (Dotmatics Software Company, Bishops Stortford, Hertfordshire, England).

Molt-4 cells = test: Cell viability counter screen assay (CellTiter-Glo) in Molt-4 cells; assay type: cell-based; settings: 24 hours, 10% Human Serum, 50% decrease in cell viability
Description: as §1, §2

CO[C@H]1CC[C@H](CNc2ccc(S(=O)(=O)NC(=O)c3ccc(N4CCN5CC6=C(c7ccc(Cl)cc7)CC(C)(C)C[C@H]6OCCCOC[C@@H]5C4)cc3N3CCCOc4nc5[nH]ccc5cc43)cc2[N+](=O)[O-])OC1 [Example 13, 4-((4aS,10aR)-14-(4-chlorophenyl)-12,12-dimethyl-1,2,4a,5,8,9,10a,11,13,15-decahydro-7H,12H-benzo[f]pyrazino[2,1-c][1,8]dioxa[4]azacycloundecin-3(4H)-yl)-2-(3,4-dihydro-2H-pyrrolo[3′,2′:5,6]pyrido[2,3-b][1,4]oxazepin-1(7H)-yl)-N-((4-((((2R,5S)-5-methoxytetrahydro-2H-pyran-2-yl)methyl)amino)-3-nitrophenyl)sulfonyl)benzamide]
EC50 (RS4;11 cells): 2.95 nM
EC50 (Molt-4 cells): 1700 nM

CC1(C)CC(c2ccc(Cl)cc2)=C2CN3CCN(c4ccc(C(=O)NS(=O)(=O)c5ccc(NC[C@H]6C[C@](O)(C7CCC7)C6)c([N+](=O)[O-])c5)c(N5CCCOc6nc7[nH]ccc7cc65)c4)C[C@H]3COCCCO[C@@H]2C1 [Example 15, 4-((4aS,10aR)-14-(4-chlorophenyl)-12,12-dimethyl-1,2,4a,5,8,9,10a,11,13,15-decahydro-7H,12H-benzo[f]pyrazino[2,1-c][1,8]dioxa[4]azacycloundecin-3(4H)-yl)-2-(3,4-dihydro-2H-pyrrolo[3′,2′:5,6]pyrido[2,3-h][1,4]oxazepin-1(7H)-yl)-N-((4-((((1s,3s)-1-hydroxy-[1,1′-bi(cyclobutan)]-3-yl)methyl)amino)-3-nitrophenyl)sulfonyl)benzamide]
EC50 (RS4;11 cells): 5.64 nM
EC50 (Molt-4 cells): 2550 nM

CC1(C)CC(c2ccc(Cl)cc2)=C2CN3CCN(c4ccc(C(=O)NS(=O)(=O)c5ccc(NC[C@H]6C[C@](O)(CF)C6)c([N+](=O)[O-])c5)c(N5CCCOc6nc7[nH]ccc7cc65)c4)C[C@H]3COCCCO[C@@H]2C1 [Example 16, 4-((4aS,10aR)-14-(4-chlorophenyl)-12,12-dimethyl-1,2,4a,5,8,9,10a,11,13,15-decahydro-7H,12H-benzo[f]pyrazino[2,1-c][1,8]dioxa[4]azacycloundecin-3(4H)-yl)-2-(3,4-dihydro-2H-pyrrolo[3′,2′:5,6]pyrido[2,3-h][1,4]oxazepin-1(7H)-yl)-N-((4-((((1s,3s)-3-(fluoromethyl)-3-hydroxycyclobutyl)methyl)amino)-3-nitrophenyl)sulfonyl)benzamide]
EC50 (RS4;11 cells): 1.51 nM
EC50 (Molt-4 cells): 1260 nM

CC1(C)CC(c2ccc(Cl)cc2)=C2CN3CCN(c4ccc(C(=O)NS(=O)(=O)c5ccc(NCC6(O)COC6)c([N+](=O)[O-])c5)c(N5CCCOc6nc7[nH]ccc7cc65)c4)C[C@H]3COCCCO[C@@H]2C1 [Example 17, 4-((4aS,10aR)-14-(4-chlorophenyl)-12,12-dimethyl-1,2,4a,5,8,9,10a,11,13,15-decahydro-7H,12H-benzo[f]pyrazino[2,1-c][1,8]dioxa[4]azacycloundecin-3(4H)-yl)-2-(3,4-dihydro-2H-pyrrolo[3′,2′:5,6]pyrido[2,3-b][1,4]oxazepin-1(7H)-yl)-N-((4-(((3-hydroxyoxetan-3-yl)methyl)amino)-3-nitrophenyl)sulfonyl)benzamide]
EC50 (RS4;11 cells): 2.82 nM
EC50 (Molt-4 cells): 723 nM

CC1(C)CC(c2ccc(Cl)cc2)=C2CN3CCN(c4ccc(C(=O)NS(=O)(=O)c5ccc(NCC6(O)CCOCC6)c([N+](=O)[O-])c5)c(N5CCCOc6nc7[nH]ccc7cc65)c4)C[C@H]3COCCCO[C@@H]2C1 [Example 18, 4-((4aS,10aR)-14-(4-chlorophenyl)-12,12-dimethyl-1,2,4a,5,8,9,10a,11,13,15-decahydro-7H,12H-benzo[f]pyrazino[2,1-c][1,8]dioxa[4]azacycloundecin-3(4H)-yl)-2-(3,4-dihydro-2H-pyrrolo[3′,2′:5,6]pyrido[2,3-b][1,4]oxazepin-1(7H)-yl)-N-((4-(((4-hydroxytetrahydro-2H-pyran-4-yl)methyl)amino)-3-nitrophenyl)sulfonyl)benzamide]
EC50 (RS4;11 cells): 1.43 nM
EC50 (Molt-4 cells): 426 nM

CC1(C)CC(c2ccc(Cl)cc2)=C2CN3CCN(c4ccc(C(=O)NS(=O)(=O)c5ccc(OCC6(F)CCN(C7COC7)CC6)c([N+](=O)[O-])c5)c(N5CCCOc6nc7[nH]ccc7cc65)c4)C[C@H]3COCCCO[C@@H]2C1 [Example 19, 4-((4aS,10aR)-14-(4-chlorophenyl)-12,12-dimethyl-1,2,4a,5,8,9,10a,11,13,15-decahydro-7H,12H-benzo[f]pyrazino[2,1-c][1,8]dioxa[4]azacycloundecin-3(4H)-yl)-2-(3,4-dihydro-2H-pyrrolo[3′,2′:5,6]pyrido[2,3-b][1,4]oxazepin-1(7H)-yl)-N-((4-((4-fluoro-1-(oxetan-3-yl)piperidin-4-yl)methoxy)-3-nitrophenyl)sulfonyl)benzamide]
EC50 (RS4;11 cells): 0.881 nM
EC50 (Molt-4 cells): 132 nM

C[C@@H]1CO[C@@H](COc2ccc(S(=O)(=O)NC(=O)c3ccc(N4CCN5CC6=C(c7ccc(Cl)cc7)CC(C)(C)C[C@H]6OCCCOC[C@@H]5C4)cc3N3CCCOc4nc5[nH]ccc5cc43)cc2[N+](=O)[O-])CO1 [Example 20, 4-((4aS,10aR)-14-(4-chlorophenyl)-12,12-dimethyl-1,2,4a,5,8,9,10a,11,13,15-decahydro-7H,12H-benzo[f]pyrazino[2,1-c][1,8]dioxa[4]azacycloundecin-3(4H)-yl)-2-(3,4-dihydro-2H-pyrrolo[3′,2′:5,6]pyrido[2,3-b][1,4]oxazepin-1(7H)-yl)-N-((4-(((2R,5R)-5-methyl-1,4-dioxan-2-yl)methoxy)-3-nitrophenyl)sulfonyl)benzamide]
EC50 (RS4;11 cells): 5.21 nM
EC50 (Molt-4 cells): 1610 nM

C[C@@H]1CC[C@H](CNc2ccc(S(=O)(=O)NC(=O)c3ccc(N4CCN5CC6=C(c7ccc(Cl)cc7)CC(C)(C)C[C@H]6OCCCOC[C@@H]5C4)cc3N3CCCOc4nc5[nH]ccc5cc43)cc2[N+](=O)[O-])OC1 [Example 21, 4-((4aS,10aR)-14-(4-chlorophenyl)-12,12-dimethyl-1,2,4a,5,8,9,10a,11,13,15-decahydro-7H,12H-benzo[f]pyrazino[2,1-c][1,8]dioxa[4]azacycloundecin-3(4H)-yl)-2-(3,4-dihydro-2H-pyrrolo[3′,2′:5,6]pyrido[2,3-b][1,4]oxazepin-1(7H)-yl)-N-((4-((((2R,5R)-5-methyltetrahydro-2H-pyran-2-yl)methyl)amino)-3-nitrophenyl)sulfonyl)benzamide]
EC50 (RS4;11 cells): 4.89 nM
EC50 (Molt-4 cells): 3280 nM

COCCN1CCC(F)(COc2ncc(S(=O)(=O)NC(=O)c3ccc(N4CCN5CC6=C(c7ccc(Cl)cc7)CC(C)(C)C[C@H]6OCCCOC[C@@H]5C4)cc3N3CCCOc4nc5[nH]ccc5cc43)cc2Cl)CC1 [Example 22, N-((5-chloro-6-((4-fluoro-1-(2-methoxyethyl)piperidin-4-yl)methoxy)pyridin-3-yl)sulfonyl)-4-((4aS,10aR)-14-(4-chlorophenyl)-12,12-dimethyl-1,2,4a,5,8,9,10a,11,13,15-decahydro-7H,12H-benzo[f]pyrazino[2,1-c][1,8]dioxa[4]azacycloundecin-3(4H)-yl)-2-(3,4-dihydro-2H-pyrrolo[3′,2′:5,6]pyrido[2,3-b][1,4]oxazepin-1(7H)-yl)benzamide]
EC50 (RS4;11 cells): 2.78 nM
EC50 (Molt-4 cells): 755 nM

C[C@H]1CC[C@H](CNc2ccc(S(=O)(=O)NC(=O)c3ccc(N4CCN5CC6=C(c7ccc(Cl)cc7)CC(C)(C)C[C@H]6OCCCOC[C@@H]5C4)cc3N3CCCOc4nc5[nH]ccc5cc43)cc2[N+](=O)[O-])OC1 [Example 23, 4-((4aS,10aR)-14-(4-chlorophenyl)-12,12-dimethyl-1,2,4a,5,8,9,10a,11,13,15-decahydro-7H,12H-benzo[f]pyrazino[2,1-c][1,8]dioxa[4]azacycloundecin-3(4H)-yl)-2-(3,4-dihydro-2H-pyrrolo[3′,2′:5,6]pyrido[2,3-h][1,4]oxazepin-1(7H)-yl)-N-((4-((((2R,5S)-5-methyltetrahydro-2H-pyran-2-yl)methyl)amino)-3-nitrophenyl)sulfonyl)benzamide]
EC50 (RS4;11 cells): 5.29 nM
EC50 (Molt-4 cells): > 10000 nM

CO[C@H]1C[C@@H](CNc2ccc(S(=O)(=O)NC(=O)c3ccc(N4CCN5CC6=C(c7ccc(Cl)cc7)CC(C)(C)C[C@H]6OCCCOC[C@@H]5C4)cc3N3CCCOc4nc5[nH]ccc5cc43)cc2[N+](=O)[O-])C1 [Example 24]
EC50 (RS4;11 cells): 4.9 nM
EC50 (Molt-4 cells): > 10000 nM

COC1(CNc2ccc(S(=O)(=O)NC(=O)c3ccc(N4CCN5CC6=C(c7ccc(Cl)cc7)CC(C)(C)C[C@H]6OCCCOC[C@@H]5C4)cc3N3CCCOc4nc5[nH]ccc5cc43)cc2[N+](=O)[O-])CCOCC1 [Example 26, 4-((4aS,10aR)-14-(4-chlorophenyl)-12,12-dimethyl-1,2,4a,5,8,9,10a,11,13,15-decahydro-7H,12H-benzo[f]pyrazino[2,1-c][1,8]dioxa[4]azacycloundecin-3(4H)-yl)-2-(3,4-dihydro-2H-pyrrolo[3′,2′:5,6]pyrido[2,3-b][1,4]oxazepin-1(7H)-yl)-N-((4-(((4-methoxytetrahydro-2H-pyran-4-yl)methyl)amino)-3-nitrophenyl)sulfonyl)benzamide]
EC50 (RS4;11 cells): 4.38 nM
EC50 (Molt-4 cells): > 10000 nM
